The source of these data is ChEMBL document CHEMBL6071156 (Eur J Med Chem, 2024).

Active and inactive are the calls of the source. No cut-off for these calls is given here. A value given as a limit tells only on which side of the number the result lay.

Data set [1] can be described thus: MRT in C57BL/6 mouse plasma at 2.5 mg/kg, iv measured upto 24 hrs post dosing by LC-MS/MS. Particulars: in vivo. In kind it is ADME, organism-based.
Data set [2] can be described thus: Volume in the terminal state in C57BL/6 mouse plasma at 2.5 mg/kg, iv measured upto 24 hrs post dosing by LC-MS/MS. It counts as ADME, organism-based. The settings on record: in vivo.
Data set [3] in a line: Oral bioavailability in C57BL/6 mouse plasma at 10 mg/kg, measured upto 24 hrs by LC-MS/MS. It counts as ADME, organism-based. Particulars: in vivo.
The test system of data set [4] is Chikungunya virus. The data set can be described thus: Antiviral activity against CHIKV infected in C57BL/6 mouse assessed as footpad swelling at 300 mg/kg/day, ip measured after 6 days post infection (Rvb =40.9+/-12.4). In kind it is functional. The settings on record: time 6 day.
In a further data set the target is Cytochrome P450 2C19 (Homo sapiens, UniProt P33261). Briefly: Inhibition of CYP2C19 (unknown origin). In kind it is ADME.
Data set [5] is described as follows: Toxicity in C57BL/6 mouse model assessed as effect on ALT level at 300 mg/kg/day, ip measured after 6 days post infection (reference value: 29 to 33). In kind it is organism-based. The settings on record: in vivo, 144 h, time 6 day.
Data set [6] has as its system Chikungunya virus. The data set can be described thus: Antiviral activity against CHIKV S27 in green monkey Vero 76 cells assessed as reduction in virus yield measured after 3 days by Virus yield reduction assay. In kind it is functional. Particulars: S27, Vero 76, 72 h, time 3 day.
Data set [7] can be described thus: Volume of distribution at steady state in C57BL/6 mouse plasma at 2.5 mg/kg, iv measured upto 24 hrs post dosing by LC-MS/MS. In kind it is ADME, organism-based. The settings on record: in vivo.
Data set [8] addresses Polyprotein P1234 (Chikungunya virus (strain S27-African prototype) (CHIKV)) (UniProt Q8JUX6). Particulars: dose 0.27-600 µM, time 2000-8000 sec.
In data set [9] the target is T1, A-type voltage-gated potassium channel KCND3 (Homo sapiens, UniProt Q9UK17).
T1 sequence (Q9UK17 whole entry): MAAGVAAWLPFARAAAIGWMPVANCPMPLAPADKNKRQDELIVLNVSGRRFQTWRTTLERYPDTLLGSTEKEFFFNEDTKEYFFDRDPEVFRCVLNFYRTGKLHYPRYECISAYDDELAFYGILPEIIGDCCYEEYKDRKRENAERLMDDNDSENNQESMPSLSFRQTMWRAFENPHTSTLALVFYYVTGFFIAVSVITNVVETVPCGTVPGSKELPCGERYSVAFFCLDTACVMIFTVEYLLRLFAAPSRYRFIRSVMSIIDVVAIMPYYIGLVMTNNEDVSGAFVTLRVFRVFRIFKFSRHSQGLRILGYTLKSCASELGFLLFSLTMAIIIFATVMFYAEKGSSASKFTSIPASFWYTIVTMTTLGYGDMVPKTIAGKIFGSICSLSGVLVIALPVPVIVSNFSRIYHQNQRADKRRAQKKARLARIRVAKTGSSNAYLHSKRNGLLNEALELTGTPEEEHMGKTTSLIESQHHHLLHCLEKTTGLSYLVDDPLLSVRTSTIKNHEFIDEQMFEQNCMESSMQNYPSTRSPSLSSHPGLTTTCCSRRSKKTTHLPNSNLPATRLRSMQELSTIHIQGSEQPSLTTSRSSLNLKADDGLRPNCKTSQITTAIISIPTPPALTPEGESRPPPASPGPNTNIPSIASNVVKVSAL
Briefly: Antagonist activity at potassium channels hKv4.3/hKChiP2 expressed in HEK293 cells by Electrophysiology. In kind it is toxicity, cell-based.

Data set [10] in a line: Cmax in C57BL/6 mouse plasma at 10 mg/kg, po measured upto 24 hrs post dosing by LC-MS/MS. It counts as ADME, organism-based. The settings on record: in vivo.
In a further data set the target is T2, Cytochrome P450 2C8 (Homo sapiens, UniProt P10632).
T2 sequence (P10632 whole entry): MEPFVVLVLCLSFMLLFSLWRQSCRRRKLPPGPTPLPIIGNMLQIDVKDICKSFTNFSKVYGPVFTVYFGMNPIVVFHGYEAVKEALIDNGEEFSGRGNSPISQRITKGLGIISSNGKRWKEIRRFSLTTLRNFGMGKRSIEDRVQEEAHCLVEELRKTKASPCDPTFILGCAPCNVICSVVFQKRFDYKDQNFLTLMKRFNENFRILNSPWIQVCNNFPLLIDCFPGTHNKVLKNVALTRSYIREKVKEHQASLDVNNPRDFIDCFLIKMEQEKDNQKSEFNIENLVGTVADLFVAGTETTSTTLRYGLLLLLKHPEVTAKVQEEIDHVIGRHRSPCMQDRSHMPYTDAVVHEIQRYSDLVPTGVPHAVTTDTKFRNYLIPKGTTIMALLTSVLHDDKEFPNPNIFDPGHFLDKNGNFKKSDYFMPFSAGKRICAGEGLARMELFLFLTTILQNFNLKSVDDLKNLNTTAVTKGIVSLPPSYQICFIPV
The data set can be described thus: Inhibition of CYP2C8 (unknown origin). In kind it is ADME.

Data set [11] in a line: Toxicity in C57BL/6 mouse model assessed as effect on DBILI level at 300 mg/kg/day, ip measured after 6 days post infection (reference value: 0.25 to 0.33). It counts as organism-based. The settings on record: in vivo, 144 h, time 6 day.
A further data set deals with Kir2.1. Briefly: Antagonist activity at hKir2.1 expressed in HEK293 cells by Electrophysiology. In kind it is toxicity, cell-based. The settings on record: human, HEK293 cells expressing hKir2.1.
Data set [12] in a line: Cytotoxicity against green monkey Vero 76 cells assessed as reduction in cell viability. It counts as toxicity, cell-based. Particulars: chlorocebus sabaeus.
The nature of data set [13]: Toxicity in C57BL/6 mouse model assessed as effect on AST level at 300 mg/kg/day, ip measured after 6 days post infection (reference value: 64 to 100). In kind it is organism-based. The settings on record: in vivo, 144 h, time 6 day.
Data set [14] is described as follows: Toxicity in C57BL/6 mouse model assessed as effect on TBILI level at 300 mg/kg/day, ip measured after 6 days post infection (reference value: 0.30 to 0.43). It counts as organism-based. The settings on record: in vivo, 144 h, time 6 day.
Data set [15] can be described thus: Half life in C57BL/6 mouse plasma at 2.5 mg/kg, iv measured upto 24 hrs post dosing by LC-MS/MS. The settings on record: in vivo. It counts as ADME, organism-based.
Data set [16] in a line: Metabolic stability in human liver S9 fraction assessed as intrinsic clearance by HPLC-MS/MS analysis. In kind it is ADME, subcellular.
Data set [17] concerns the target Voltage-gated inwardly rectifying potassium channel KCNH2 (Homo sapiens, UniProt Q12809). The data set can be described thus: Antagonist activity at recombinant hERG expressed in CHO-K1 cells by Electrophysiology. It counts as toxicity, cell-based. A general note: Block of hERG is tested as a sign of cardiac risk.
The test system of data set [18] is Chikungunya virus. Briefly: Antiviral activity against CHIKV infected in C57BL/6 mouse assessed as virus titers at 300 mg/kg/day, ip measured after 6 days post infection (reference value: 5.3+/0.3). The settings on record: time 6 day. In kind it is functional.

Voltage-gated inwardly rectifying potassium channel KCNH2, sequence (Q12809 whole entry): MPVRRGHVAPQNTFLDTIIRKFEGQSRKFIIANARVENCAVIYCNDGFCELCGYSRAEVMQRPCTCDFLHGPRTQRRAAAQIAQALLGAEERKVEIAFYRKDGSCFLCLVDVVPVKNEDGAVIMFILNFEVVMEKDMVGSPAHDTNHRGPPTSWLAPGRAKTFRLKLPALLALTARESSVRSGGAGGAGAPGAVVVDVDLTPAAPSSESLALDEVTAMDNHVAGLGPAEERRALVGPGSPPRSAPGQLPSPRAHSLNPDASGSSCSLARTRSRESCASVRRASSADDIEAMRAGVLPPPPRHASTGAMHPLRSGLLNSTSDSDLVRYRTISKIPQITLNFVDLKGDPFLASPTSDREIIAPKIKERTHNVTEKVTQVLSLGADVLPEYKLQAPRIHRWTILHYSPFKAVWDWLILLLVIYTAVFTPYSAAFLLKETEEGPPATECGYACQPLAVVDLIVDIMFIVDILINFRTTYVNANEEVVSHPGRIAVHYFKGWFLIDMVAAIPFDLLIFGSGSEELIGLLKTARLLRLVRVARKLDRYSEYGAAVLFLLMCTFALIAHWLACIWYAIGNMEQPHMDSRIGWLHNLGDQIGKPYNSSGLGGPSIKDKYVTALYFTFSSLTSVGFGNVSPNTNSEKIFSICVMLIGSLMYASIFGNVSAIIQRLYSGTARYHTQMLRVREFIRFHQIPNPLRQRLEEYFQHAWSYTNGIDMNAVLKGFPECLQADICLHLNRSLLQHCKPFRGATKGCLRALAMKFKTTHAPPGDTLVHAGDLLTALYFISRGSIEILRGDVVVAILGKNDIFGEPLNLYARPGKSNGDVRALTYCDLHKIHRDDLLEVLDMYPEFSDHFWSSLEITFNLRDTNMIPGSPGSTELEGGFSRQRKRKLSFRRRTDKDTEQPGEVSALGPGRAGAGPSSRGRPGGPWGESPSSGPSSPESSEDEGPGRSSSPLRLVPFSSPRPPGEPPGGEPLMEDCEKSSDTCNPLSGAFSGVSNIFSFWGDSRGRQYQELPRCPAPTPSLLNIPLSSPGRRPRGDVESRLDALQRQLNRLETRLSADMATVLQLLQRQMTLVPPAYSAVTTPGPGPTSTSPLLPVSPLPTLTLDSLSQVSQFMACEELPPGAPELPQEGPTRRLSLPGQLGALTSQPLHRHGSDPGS
Polyprotein P1234 (Chikungunya virus (strain S27-African prototype) (CHIKV)), sequence (Q8JUX6 whole entry): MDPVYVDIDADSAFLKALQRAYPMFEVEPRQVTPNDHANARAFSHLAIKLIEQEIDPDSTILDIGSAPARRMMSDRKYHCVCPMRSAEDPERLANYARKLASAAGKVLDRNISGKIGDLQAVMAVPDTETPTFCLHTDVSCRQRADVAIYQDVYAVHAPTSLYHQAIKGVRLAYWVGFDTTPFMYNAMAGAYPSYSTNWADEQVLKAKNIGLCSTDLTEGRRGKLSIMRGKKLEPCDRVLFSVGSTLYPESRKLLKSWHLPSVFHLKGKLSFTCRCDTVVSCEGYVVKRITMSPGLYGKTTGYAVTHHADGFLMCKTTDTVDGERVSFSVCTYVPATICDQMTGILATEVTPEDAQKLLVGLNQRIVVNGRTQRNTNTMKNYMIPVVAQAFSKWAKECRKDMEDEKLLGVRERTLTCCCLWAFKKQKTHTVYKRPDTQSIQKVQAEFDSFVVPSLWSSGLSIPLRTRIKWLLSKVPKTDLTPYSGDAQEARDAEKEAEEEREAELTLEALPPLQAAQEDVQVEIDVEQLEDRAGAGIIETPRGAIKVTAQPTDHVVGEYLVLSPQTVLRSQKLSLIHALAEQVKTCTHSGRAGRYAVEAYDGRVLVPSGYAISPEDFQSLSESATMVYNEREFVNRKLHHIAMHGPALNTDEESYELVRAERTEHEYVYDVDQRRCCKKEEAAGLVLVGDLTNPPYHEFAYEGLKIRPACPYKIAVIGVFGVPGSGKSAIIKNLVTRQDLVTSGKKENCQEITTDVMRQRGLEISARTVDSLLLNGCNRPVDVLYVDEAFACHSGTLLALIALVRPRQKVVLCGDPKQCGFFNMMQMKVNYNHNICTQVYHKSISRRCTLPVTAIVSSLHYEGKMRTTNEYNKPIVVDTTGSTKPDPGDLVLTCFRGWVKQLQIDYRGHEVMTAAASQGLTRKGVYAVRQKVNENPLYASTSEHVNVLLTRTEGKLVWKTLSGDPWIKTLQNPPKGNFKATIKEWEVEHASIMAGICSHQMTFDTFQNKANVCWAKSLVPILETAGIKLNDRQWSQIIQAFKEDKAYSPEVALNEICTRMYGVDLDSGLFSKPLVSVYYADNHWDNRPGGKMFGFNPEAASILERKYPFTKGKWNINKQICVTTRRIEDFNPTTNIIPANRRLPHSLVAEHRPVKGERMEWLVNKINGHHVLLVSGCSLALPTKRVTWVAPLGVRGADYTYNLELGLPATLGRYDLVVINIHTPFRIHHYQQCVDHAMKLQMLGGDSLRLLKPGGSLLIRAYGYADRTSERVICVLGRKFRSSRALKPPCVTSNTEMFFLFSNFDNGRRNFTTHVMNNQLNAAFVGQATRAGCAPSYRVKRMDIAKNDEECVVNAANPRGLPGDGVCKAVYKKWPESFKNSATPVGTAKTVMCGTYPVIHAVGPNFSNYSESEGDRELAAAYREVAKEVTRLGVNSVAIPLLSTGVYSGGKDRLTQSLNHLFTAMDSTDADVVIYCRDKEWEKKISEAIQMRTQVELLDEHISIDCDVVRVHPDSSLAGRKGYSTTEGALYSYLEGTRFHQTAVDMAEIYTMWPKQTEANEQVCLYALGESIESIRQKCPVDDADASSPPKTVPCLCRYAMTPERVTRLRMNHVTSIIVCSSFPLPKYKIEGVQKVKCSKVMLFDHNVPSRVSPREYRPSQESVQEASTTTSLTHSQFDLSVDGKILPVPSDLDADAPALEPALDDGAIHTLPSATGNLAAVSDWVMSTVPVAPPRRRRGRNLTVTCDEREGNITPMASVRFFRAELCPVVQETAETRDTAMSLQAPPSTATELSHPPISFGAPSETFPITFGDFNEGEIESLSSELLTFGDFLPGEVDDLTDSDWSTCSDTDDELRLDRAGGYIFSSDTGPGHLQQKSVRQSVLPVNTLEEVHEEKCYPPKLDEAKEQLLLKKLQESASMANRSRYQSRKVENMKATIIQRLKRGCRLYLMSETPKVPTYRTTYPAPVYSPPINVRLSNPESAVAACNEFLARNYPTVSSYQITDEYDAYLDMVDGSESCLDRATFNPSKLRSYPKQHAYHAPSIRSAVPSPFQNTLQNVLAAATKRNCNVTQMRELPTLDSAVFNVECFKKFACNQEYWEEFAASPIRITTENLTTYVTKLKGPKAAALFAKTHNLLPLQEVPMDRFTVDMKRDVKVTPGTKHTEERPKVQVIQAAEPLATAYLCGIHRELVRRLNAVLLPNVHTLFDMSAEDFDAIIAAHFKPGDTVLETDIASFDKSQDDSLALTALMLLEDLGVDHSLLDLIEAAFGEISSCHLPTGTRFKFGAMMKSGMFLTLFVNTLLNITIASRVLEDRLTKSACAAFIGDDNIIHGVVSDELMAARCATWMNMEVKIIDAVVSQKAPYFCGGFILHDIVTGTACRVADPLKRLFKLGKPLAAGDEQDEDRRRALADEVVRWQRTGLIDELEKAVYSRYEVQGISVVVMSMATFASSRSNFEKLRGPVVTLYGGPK
Cytochrome P450 2C19, sequence (P33261 whole entry): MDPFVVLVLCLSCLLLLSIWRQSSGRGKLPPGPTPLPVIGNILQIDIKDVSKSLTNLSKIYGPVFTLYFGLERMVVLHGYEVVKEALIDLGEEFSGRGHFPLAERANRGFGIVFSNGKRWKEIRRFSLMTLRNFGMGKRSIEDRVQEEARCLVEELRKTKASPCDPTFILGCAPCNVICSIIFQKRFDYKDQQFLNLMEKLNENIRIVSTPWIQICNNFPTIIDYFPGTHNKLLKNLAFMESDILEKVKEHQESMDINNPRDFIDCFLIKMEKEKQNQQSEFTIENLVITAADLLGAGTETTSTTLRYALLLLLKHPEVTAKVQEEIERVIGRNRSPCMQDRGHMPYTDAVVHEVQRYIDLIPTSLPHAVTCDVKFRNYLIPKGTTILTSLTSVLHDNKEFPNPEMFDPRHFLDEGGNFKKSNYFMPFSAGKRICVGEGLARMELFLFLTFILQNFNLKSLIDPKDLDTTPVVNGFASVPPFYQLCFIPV

A word on the MRT: it is a mean duration of stay, worked out from the concentration-time curve. A word on the Vz: it is the apparent volume that relates the amount in the body to the concentration in plasma or blood. The IC50 is the concentration at which inhibition is half-maximal. A word on the EC90: it is the point of the concentration-response curve where the effect stands at 90%. For orientation: Vdss means a proportionality between amount in the body and measured concentration, not a real space. Usually Cmax stands for the maximum level reached in the sampled fluid or tissue. By CC50 is commonly meant the concentration at which the toxic effect on the cells reaches its halfway point. `CC1CCNc2c(C(=O)NC/C=C/S(C)(=O)=O)cccc21` (stereo unspecified) displayed an MRT in data set [1] of 3.6 min. Further, the Vz in data set [2] came out at 4.5 L/kg. The F in data set [3] is 95.6%. Moreover, the Activity came out at 14.1% in the data set with Chikungunya virus [4]; 28 U/L in data set [5]; 0.14 mg/dL in data set [11]; 64 U/L in data set [13]; 0.34 mg/dL in data set [14]; 5.3 with Chikungunya virus [18]. The concentration for half-maximal inhibition (IC50) (against Cytochrome P450 2C19; in data set [9]; against Cytochrome P450 2C8; with Kir2.1; in data set [17]) was more than 100 µM in each case. For the same compound, the concentration for an effect of 90% (EC90) in the data set with Chikungunya virus [6] stood at 1.6 µM. Also, in data set [7], the distribution volume (Vdss) worked out at 1.9 L/kg. The TDI entry in data set [8] is “Active”. In addition, in data set [10], the Cmax came out at 0.125 µg/mL. The CC50 in [12] is more than 50 µM. In addition, the t1/2 in data set [15] was determined as 6 min. Further, in data set [16], the CLH stood at 22.7 µL/min/mg.
